Test results reported in the NIST ThermoML archive (doi:10.1007/s10765-010-0737-5).

Assay: xn = mol fraction of the nth substance listed
Settings: Liquid; for viscosity: 101 kPa, Capillary tube (Ostwald / Ubbelohde) method; for mass density: 101.3 kPa

CC(C)CCl [1-chloro-2-methylpropane] + CC(C)OC(C)C
Settings | mass density [kg/m3] | viscosity [mPa·s]
283.15 K, x1 = 0.0549 | 740.509 | 0.3695
283.15 K, x1 = 0.091 | 745.071 | 0.3728
283.15 K, x1 = 0.1977 | 758.96 | 0.3837
283.15 K, x1 = 0.2934 | 772.077 | 0.3947
283.15 K, x1 = 0.3911 | 785.941 | 0.4069
283.15 K, x1 = 0.5137 | 804.21 | 0.424
283.15 K, x1 = 0.6034 | 818.258 | 0.438
283.15 K, x1 = 0.6769 | 830.206 | 0.4502
283.15 K, x1 = 0.8059 | 852.473 | 0.4739
283.15 K, x1 = 0.9111 | 871.773 | 0.4955
283.15 K, x1 = 0.9646 | 881.981 | 0.5074
283.15 K, x1 = 1 | 888.845 | 0.5155
288.15 K, x1 = 0.0549 | 735.346 | 0.3532
288.15 K, x1 = 0.091 | 739.888 | 0.3565
288.15 K, x1 = 0.1977 | 753.737 | 0.3666
288.15 K, x1 = 0.2934 | 766.807 | 0.3765
288.15 K, x1 = 0.3911 | 780.617 | 0.3876
288.15 K, x1 = 0.5137 | 798.831 | 0.403
288.15 K, x1 = 0.6034 | 812.821 | 0.4152
288.15 K, x1 = 0.6769 | 824.734 | 0.4261
288.15 K, x1 = 0.8059 | 846.936 | 0.447
288.15 K, x1 = 0.9111 | 866.179 | 0.4658
288.15 K, x1 = 0.9646 | 876.368 | 0.4761
288.15 K, x1 = 1 | 883.211 | 0.4833
293.15 K, x1 = 0.0549 | 730.142 | 0.3383
293.15 K, x1 = 0.091 | 734.678 | 0.3412
293.15 K, x1 = 0.1977 | 748.467 | 0.3504
293.15 K, x1 = 0.2934 | 761.481 | 0.3595
293.15 K, x1 = 0.3911 | 775.245 | 0.3694
293.15 K, x1 = 0.5137 | 793.406 | 0.3831
293.15 K, x1 = 0.6034 | 807.35 | 0.3941
293.15 K, x1 = 0.6769 | 819.228 | 0.4038
293.15 K, x1 = 0.8059 | 841.356 | 0.4222
293.15 K, x1 = 0.9111 | 860.549 | 0.4386
293.15 K, x1 = 0.9646 | 870.717 | 0.4478
293.15 K, x1 = 1 | 877.539 | 0.454
298.15 K, x1 = 0.0549 | 724.887 | 0.3219
298.15 K, x1 = 0.091 | 729.395 | 0.3247
298.15 K, x1 = 0.1977 | 743.114 | 0.3337
298.15 K, x1 = 0.2934 | 756.06 | 0.3423
298.15 K, x1 = 0.3911 | 769.763 | 0.3515
298.15 K, x1 = 0.5137 | 787.825 | 0.3644
298.15 K, x1 = 0.6034 | 801.699 | 0.3747
298.15 K, x1 = 0.6769 | 813.519 | 0.3834
298.15 K, x1 = 0.8059 | 835.53 | 0.4003
298.15 K, x1 = 0.9111 | 854.603 | 0.4156
298.15 K, x1 = 0.9646 | 864.749 | 0.4238
298.15 K, x1 = 1 | 871.533 | 0.4296
303.15 K, x1 = 0.0549 | 719.603 | 0.3043
303.15 K, x1 = 0.091 | 724.11 | 0.3069
303.15 K, x1 = 0.1977 | 737.798 | 0.316
303.15 K, x1 = 0.2934 | 750.738 | 0.3246
303.15 K, x1 = 0.3911 | 764.421 | 0.3341
303.15 K, x1 = 0.5137 | 782.446 | 0.3469
303.15 K, x1 = 0.6034 | 796.305 | 0.357
303.15 K, x1 = 0.6769 | 808.11 | 0.3659
303.15 K, x1 = 0.8059 | 830.111 | 0.3826
303.15 K, x1 = 0.9111 | 849.196 | 0.3975
303.15 K, x1 = 0.9646 | 859.307 | 0.4058
303.15 K, x1 = 1 | 866.096 | 0.4112
308.15 K, x1 = 0.0549 | 714.28 | 0.2896
308.15 K, x1 = 0.091 | 718.759 | 0.2926
308.15 K, x1 = 0.1977 | 732.397 | 0.3012
308.15 K, x1 = 0.2934 | 745.3 | 0.3094
308.15 K, x1 = 0.3911 | 758.935 | 0.3184
308.15 K, x1 = 0.5137 | 776.901 | 0.3308
308.15 K, x1 = 0.6034 | 790.719 | 0.3404
308.15 K, x1 = 0.6769 | 802.492 | 0.3489
308.15 K, x1 = 0.8059 | 824.422 | 0.3647
308.15 K, x1 = 0.9111 | 843.468 | 0.3791
308.15 K, x1 = 0.9646 | 853.542 | 0.3867
308.15 K, x1 = 1 | 860.319 | 0.3921
313.15 K, x1 = 0.0549 | 708.887 | 0.2761
313.15 K, x1 = 0.091 | 713.334 | 0.2788
313.15 K, x1 = 0.1977 | 726.882 | 0.287
313.15 K, x1 = 0.2934 | 739.693 | 0.2948
313.15 K, x1 = 0.3911 | 753.227 | 0.3033
313.15 K, x1 = 0.5137 | 771.077 | 0.315
313.15 K, x1 = 0.6034 | 784.802 | 0.324
313.15 K, x1 = 0.6769 | 796.487 | 0.3322
313.15 K, x1 = 0.8059 | 818.264 | 0.3472
313.15 K, x1 = 0.9111 | 837.168 | 0.3607
313.15 K, x1 = 0.9646 | 847.176 | 0.3677
313.15 K, x1 = 1 | 853.902 | 0.3726
